From US20050256134A1, “Use of creatine analogues and creatine kinase modulators for the prevention and treatment of glucose metabolic disorders” (AVICENA GROUP, INC., priority 1995, published 2005)

How the values were obtained:
[1] = test system: Male Zuker diabetic fatty (ZDF-fa/fa) rats; assay: Creatine compounds as 1% of the diet, glucose and insulin levels in diabetic rats; assay type: in vivo, rat
From the text: This preliminary study was initiated to gain insight into the potential regulation of glucose levels by creatine compounds in ZDF rats, a widely studied rodent model of NIDDM (Peterson, Lessons from Animal Diabetes, 1994, Pages 225-230). Male Zuker diabetic fatty (ZDF-fa/fa) rats and their lean Zuker littermates (ZDF +/?) were from Genetic Models, Inc., Indianapolis, Ind. […] Hyperglycemia is initially manifested at about 7 weeks of age and all obese rats are fully diabetic by 12 weeks of age (fed blood glucose of greater than 500 mg %). This level of hyperglycemia increases slightly for several weeks thereafter. Between 7 and 10 weeks, blood insulin levels are high but these subsequently drop as the pancreatic beta cells cease to respond to the glucose stimulus. The lean (ZDF/Gmi) rats are the control counterparts of the diabetic animals. These rats have the same genetics as the obese animals except for the obesity trait. No phenotypic differences have been observed between these rats and other typical lean control rats.
Male Zuker diabetic fatty (ZDF-fa/fa) rats and Zuker lean littermates (ZDF +/?) were 12 weeks old when dosing with creatine compounds was initiated. The ZDF-fa/fa rats were completely diabetic. The littermates were the same age. […] Animals were bled regularly throughout the experiment and glucose and insulin levels were determined using standard procedures (Linco RI-13K). […]

[2] = test system: NZW rabbits, normal or infected with HCMV in their eyes; assay: Effect of cyclocreatine continuous intravenous infusion on glucose levels in rabbits; assay type: in vivo, rabbit; conditions: for average glucose levels: 10 and 5 mg/ml
Protocol: The creatine compound cyclocreatine, was given as a continuous intravenous infusion (IV) to normal rabbits or rabbits infected with the human cytomegalovirus (HCMV) in their eyes (Rabbit Chorioretinal model). Glucose levels were recorded over a period of seven days. This compound was tested in infected as well as in normal animals due to the fact that these compounds were also being evaluated as anti viral agents, a biological activity that were reported in the U.S. Pat. No. 5,321,030. As will become clear in the data presented here the eye infection had no effect on the levels of glucose recorded. The schedule and dose selected in these experiments was based on prior experience working with this class of compounds as antiviral agents.
A total of 11 NZW rabbits weighing 1.75-2.0 Kg were used in the experiments. All animals were infused with various doses of cyclocreatine over a period of 1-7 days in a continuous infusion mode. Continuous infusions were achieved by surgical implantation of an indwelling catheter implant into the jugular vein by standard surgical procedures. The catheter was threaded through a steel sleeve and swivel apparatus attached to the back of the animal's neck which was anchored to a specially fitted vest. A Harvard Apparatus 2200 unifusion pump maintained drug delivery at a constant rate through out the experiment. This arrangement allowed the animal unimpaired movement within its cage. Animals received a bolus injection of antibiotics immediately after surgery and daily if needed. After animals recovered from the anesthesia, some animals were inoculated by intravitreal injection of AD169 HCMV (10^5 pfu). The remaining animals were left uninfected. Both infected and uninfected animals received a continuous infusion of cyclocreatine or saline for up to seven days. Concentrations of cyclocreatine were 5, 10, or 15 mg cyclocreatine/ml saline and infusion rates and volumes were adjusted to achieve the desired dose of 375-1125 mg/Kg/day. These concentrations were based on amounts required to achieve other biological activities such as antiviral or anticancer. […] The rest of the animals received a similar volume of sterile saline. […]

[3] = uninfected, 15 mg/ml (1125 mg/Kg/day), day five

**Q.** What does the source list for NC1=NCCN1CC(=O)O [cyclocreatine]?
**A.** drop in glucose levels ([1]; obese diabetic animals, vs Day 0, n=3): ~20%; effect on insulin levels ([1]; obese fatty animals): minimally affected; Glucose Levels ([2]; 5 mg/ml, HCMV infected, animal 1, day 0): 177 mg/dL; Glucose Levels ([2]; 5 mg/ml, HCMV infected, animal 1, day 1): 104 mg/dL; Glucose Levels ([2]; 5 mg/ml, HCMV infected, animal 1, day 3): 70 mg/dL; Glucose Levels ([2]; 5 mg/ml, HCMV infected, animal 1, day 5): 29 mg/dL; Glucose Levels ([2]; 5 mg/ml, HCMV infected, animal 2, day 0): 177 mg/dL; Glucose Levels ([2]; 5 mg/ml, HCMV infected, animal 2, day 1): 94 mg/dL; Glucose Levels ([2]; 5 mg/ml, HCMV infected, animal 2, day 3): 49 mg/dL; Glucose Levels ([2]; 5 mg/ml, HCMV infected, animal 2, day 5): 41 mg/dL; Glucose Levels ([2]; 5 mg/ml, HCMV infected, animal 3, day 0): 177 mg/dL; Glucose Levels ([2]; 5 mg/ml, HCMV infected, animal 3, day 1): 93 mg/dL; Glucose Levels ([2]; 5 mg/ml, HCMV infected, animal 3, day 3): 47 mg/dL; Glucose Levels ([2]; 5 mg/ml, HCMV infected, animal 3, day 5): 33 mg/dL; Glucose Levels ([2]; 10 mg/ml, HCMV infected, animal 1, day 0): 169 mg/dL; Glucose Levels ([2]; 10 mg/ml, HCMV infected, animal 1, day 1): 118 mg/dL; Glucose Levels ([2]; 10 mg/ml, HCMV infected, animal 1, day 3): 103 mg/dL; Glucose Levels ([2]; 10 mg/ml, HCMV infected, animal 1, day 4): 59 mg/dL; Glucose Levels ([2]; 10 mg/ml, HCMV infected, animal 1, day 5): 45 mg/dL; Glucose Levels ([2]; 10 mg/ml, HCMV infected, animal 2, day 0): 194 mg/dL; Glucose Levels ([2]; 10 mg/ml, HCMV infected, animal 2, day 1): 89 mg/dL; Glucose Levels ([2]; 10 mg/ml, HCMV infected, animal 2, day 3): 98 mg/dL; Glucose Levels ([2]; 10 mg/ml, HCMV infected, animal 2, day 4): 69 mg/dL; Glucose Levels ([2]; 10 mg/ml, HCMV infected, animal 2, day 5): 62 mg/dL; Glucose Levels ([2]; 10 mg/ml, HCMV infected, animal 3, day 0): 201 mg/dL; Glucose Levels ([2]; 10 mg/ml, HCMV infected, animal 3, day 1): 76 mg/dL; Glucose Levels ([2]; 10 mg/ml, HCMV infected, animal 3, day 3): 74 mg/dL; Glucose Levels ([2]; 10 mg/ml, HCMV infected, animal 3, day 4): 87 mg/dL; Glucose Levels ([2]; 10 mg/ml, HCMV infected, animal 3, day 5): 55 mg/dL; Glucose Levels ([2]; 10 mg/ml, HCMV infected, animal 4, day 0): 184 mg/dL; Glucose Levels ([2]; 10 mg/ml, HCMV infected, animal 4, day 1): 81 mg/dL; Glucose Levels ([2]; 10 mg/ml, HCMV infected, animal 4, day 3): 85 mg/dL; Glucose Levels ([2]; 10 mg/ml, HCMV infected, animal 4, day 4): 65 mg/dL; Glucose Levels ([2]; 10 mg/ml, HCMV infected, animal 4, day 5): 53 mg/dL; Glucose Levels ([2]; 15 mg/ml, not infected, animal 1, day 0): 177 mg/dL; Glucose Levels ([2]; 15 mg/ml, not infected, animal 1, day 3): 48 mg/dL; Glucose Levels ([2]; 15 mg/ml, not infected, animal 2, day 0): 177 mg/dL; Glucose Levels ([2]; 15 mg/ml, not infected, animal 2, day 3): 59 mg/dL; Glucose Levels ([2]; 15 mg/ml, not infected, animal 2, day 5): 7 mg/dL; Glucose Levels ([2]; 15 mg/ml, not infected, animal 3, day 0): 177 mg/dL; Glucose Levels ([2]; 15 mg/ml, not infected, animal 3, day 5): 22 mg/dL; Glucose Levels ([2]; 15 mg/ml, not infected, animal 3, day 6): 22 mg/dL; Glucose Levels ([2]; 15 mg/ml, not infected, animal 3, day 7, (10 ml/rabbit 20% Dextrose)): 73 mg/dL; Glucose Levels ([2]; ave 5 mg/ml, HCMV infected, day 0): 177 mg/dL; Glucose Levels ([2]; ave 5 mg/ml, HCMV infected, day 1): 97 mg/dL; Glucose Levels ([2]; ave 5 mg/ml, HCMV infected, day 3): 55 mg/dL; Glucose Levels ([2]; ave 5 mg/ml, HCMV infected, day 5): 34 mg/dL; Glucose Levels ([2]; ave 10 mg/ml, HCMV infected, day 0): 187 mg/dL; Glucose Levels ([2]; ave 10 mg/ml, HCMV infected, day 1): 91 mg/dL; Glucose Levels ([2]; ave 10 mg/ml, HCMV infected, day 3): 90 mg/dL; Glucose Levels ([2]; ave 10 mg/ml, HCMV infected, day 4): 70 mg/dL; Glucose Levels ([2]; ave 10 mg/ml, HCMV infected, day 5): 54 mg/dL; Glucose Levels ([2]; ave 15 mg/ml, not infected, day 0): 177 mg/dL; Glucose Levels ([2]; ave 15 mg/ml, not infected, day 3): 54 mg/dL; Glucose Levels ([2]; ave 15 mg/ml, not infected, day 5): 15 mg/dL; Glucose Levels ([2]; ave 15 mg/ml, not infected, day 6): 22 mg/dL; Glucose Levels ([2]; ave 15 mg/ml, not infected, day 7, (10 ml/rabbit 20% Dextrose)): 73 mg/dL; blood glucose levels ([2]; infected, 10 mg/ml (750 mg/Kg/day) and 5 mg/ml (375 mg/Kg/day)): significant drop in blood glucose levels; average glucose levels ([2]; infected, day five): 30 to 50 mg/dL; average glucose levels ([2]; infected, day one): ~90 mg/dL; Glucose Levels ([2]; uninfected, 15 mg/ml (1125 mg/Kg/day)): significant drop in their glucose levels; Glucose Levels [2, 3]: 7 to 22 mg/dL; condition of the animals [2, 3]: very lethargic; Glucose Levels ([2]; uninfected, 15 mg/ml (1125 mg/Kg/day), day three): 48 to 59 mg/dL; level of glucose after 10 mls of a 20% solution of dextrose ([2]; uninfected, 15 mg/ml, day 7): 70 mg/dL
